The target in assay [1] is T1, LcA (BoNT/A light chain) (Clostridium botulinum, UniProt P0DPI0). To be noted: cited from earlier work.
The subject of a further assay is BoNT/A / LcA. To be noted: cited from earlier work.
Assay [2] has as its target T1, LcA (BoNT/A light chain). In kind it is biochemical.
Assay [3] deals with T1, LcA (BoNT/A light chain). Type of assay: biochemical. The source holds these as a separate data set.
The target of assay [4] is T1, LcA (BoNT/A light chain). As to conditions: cited from earlier work. This is another data set of the same source.
In assay [5] the target is T1, LcA (BoNT/A light chain). Type of assay: biochemical. As to conditions: pH 7.4.
Assay [6] concerns the target T1, LcA (BoNT/A light chain).
The target in assay [7] is T1, LcA (BoNT/A light chain). This is another data set of the same source.
The target in assay [8] is T1, LcA (BoNT/A light chain). This is another data set of the same source.

As a reminder, the Km is the concentration of substrate that gives half-maximal velocity. As usually defined, the kcat is the maximal rate divided by the concentration of active sites. The Vmax is the top rate of the reaction or transport when substrate is in excess.

Where “and” joins values, the source holds several entries; their conditions need not be identical. Identical values can stand only once. Entries after “also recorded” stand apart in the source; their conditions may differ. Like-named read-outs stand apart in the source and are kept apart here.

T1 sequence (P0DPI0 1-448 limits assumed): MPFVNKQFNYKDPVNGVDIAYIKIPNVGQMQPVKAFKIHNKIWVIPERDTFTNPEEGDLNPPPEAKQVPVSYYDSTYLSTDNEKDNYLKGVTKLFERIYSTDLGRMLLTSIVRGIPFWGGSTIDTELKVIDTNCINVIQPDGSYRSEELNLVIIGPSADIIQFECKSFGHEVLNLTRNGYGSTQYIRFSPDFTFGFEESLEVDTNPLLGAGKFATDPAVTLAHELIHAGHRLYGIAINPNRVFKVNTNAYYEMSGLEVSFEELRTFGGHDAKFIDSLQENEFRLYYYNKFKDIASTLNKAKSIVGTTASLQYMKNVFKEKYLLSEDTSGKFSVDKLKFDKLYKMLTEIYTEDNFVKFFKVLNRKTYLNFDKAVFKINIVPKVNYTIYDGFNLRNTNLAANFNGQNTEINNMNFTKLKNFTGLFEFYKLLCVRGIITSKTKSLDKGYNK

Turning to SNRTRIDEAN[dnpK]RA[daciaC]RML, at LcA (BoNT/A light chain) [1], the Michaelis constant (Km) was 10 µM and the turnover number (kcat) is 7 s⁻¹.
Consider `Cl.NC(CO)(CO)CO` [tris.HCl], for which, in the assay with BoNT/A / LcA, the “effect on BoNT / LcA activity” value is recorded as “inhibitory” and the “effect on BoNT/A activity” value was “inhibitory”.
For the compound zinc chloride [ZnCl2], at LcA (BoNT/A light chain) [2], the “concentration for optimal LcA activity” value is on record as 0.1 mM. Besides, the “effect of ZnCl2 on LcA activity, SNAP25 substrate” value at LcA (BoNT/A light chain) [2] (pH 7.4) is “slight stimulation of the activity; also recorded: activity remained above the control 100%”. Moreover, on LcA (BoNT/A light chain) [3], the “behavior of the new LcA preparation on adding BSA, ZnCl2 and DTT” value is listed as “essentially same behavior”; the “effect of adding DTT and ZnCl2 to the 17-mer substrate reactions” value is on record as “results identical to those without them”. Further, the “effect on kinetic constants or specific activity of LcA with the 17-mer substrate” value on LcA (BoNT/A light chain) [4] is “no effect”.
With `O=C(O)CN(CCN(CC(=O)O)CC(=O)O)CC(=O)O` [EDTA, ethylenediaminetetraacetate], in the assay with BoNT/A / LcA, the “effect on BoNT / LcA activity” value is given as “inhibitor of LcA activity”, the “effect on BoNT activities” value is recorded as “inhibits BoNT activities” and the “effect on BoNT/A activity” value is on record as “inhibitory”.
For the compound `[Zn]` [zinc], in the assay on BoNT/A / LcA, the “effect on the LcA reaction depending on concentration” value was “both stimulating and inhibitory”.
Turning to (FITC)-ATDRIDQANQRATK(DABCYL)nL-amide, at LcA (BoNT/A light chain) [1], the Michaelis constant (Km) is 19 µM.
For `[Cl-].[Na+]` [NaCl, Sodium chloride], the “effect of NaCl on LcA activity, 66-mer substrate” value at LcA (BoNT/A light chain) [5] is “stimulating effect; also recorded: The same was also observed when the 66-mer peptide was used as a substrate”. Also, in the assay with BoNT/A / LcA, the “effect on BoNT activities” value is reported as “inhibits BoNT activities” and the “effect on BoNT/A activity” value is listed as “inhibitory”. The “effect of higher NaCl concentrations on LcA activity, full length SNAP25 substrate” value on LcA (BoNT/A light chain) [2] is listed as “decrease in LcA activity”. Moreover, the “effect of NaCl on LcA activity, full length SNAP25 substrate” value at LcA (BoNT/A light chain) [2] (pH 7.4) is listed as “stimulating effect; also recorded: more than sevenfold”. For the same compound, the “effect of NaCl on LcA activity, 17-mer substrate” value at LcA (BoNT/A light chain) [3] (pH 7.4) was “inhibitory effect”.
Take SNKTRIDEANQ-RATKML [17-mer]: at LcA (BoNT/A light chain) [6], the substrate conversion is 60–65% and the “substrate converted into products” value came to 40%. In addition, the Km at LcA (BoNT/A light chain) [1] is 1000 µM. Moreover, the “quality as LcA substrate (Km, kcat, kcat/Km)” value on LcA (BoNT/A light chain) [7] is “poorest of all the three substrates”. Also, at LcA (BoNT/A light chain) [8], the Michaelis-Menten constant (Km) turned out to be 1.5 mM, the Vmax is listed as 33.6 mM/min/mg and the kcat was 28 s⁻¹. Besides, on LcA (BoNT/A light chain) [8] (pH 7.4), the Michaelis-Menten constant (Km) came to 1.51 mM; the kcat is 28 s⁻¹ and 28 ± 3.5 s⁻¹; the kcat/Km was 0.019 µM/s.
Regarding `O[C@@H](CS)[C@@H](O)CS` (racemic) [DTT, dithiothreitol], in the assay with BoNT/A / LcA, the “effect of DTT on solubilized LcA activity” value is “inhibited”; the “effect on the LcA reaction depending on concentration” value is “both stimulating and inhibitory”. In addition, at LcA (BoNT/A light chain) [2], the “concentration for optimal LcA activity” value is 4 mM. The “effect of DTT on LcA activity, SNAP25 substrate” value on LcA (BoNT/A light chain) [2] (pH 7.4) is “slight stimulation of LcA activity”. In addition, at LcA (BoNT/A light chain) [3], the “behavior of the new LcA preparation on adding BSA, ZnCl2 and DTT” value is recorded as “essentially same behavior”; the “effect of adding DTT and ZnCl2 to the 17-mer substrate reactions” value is “results identical to those without them”. Besides, the “effect on kinetic constants or specific activity of LcA with the 17-mer substrate” value on LcA (BoNT/A light chain) [4] is on record as “no effect”.

The values above are taken from article PMC4000213 (PLoS ONE, 2014).
